Assay results as given in ChEMBL document CHEMBL3991601, “The target landscape of clinical kinase drugs” (Science, 2017).
The source made the active and inactive calls.

What was measured:
[1] = target: GTP-binding nuclear protein Ran (Homo sapiens, UniProt P62826)
[2] = target: T1, Ras-related protein Rab-27A (Homo sapiens, UniProt P51159)
T1 sequence (P51159 whole entry): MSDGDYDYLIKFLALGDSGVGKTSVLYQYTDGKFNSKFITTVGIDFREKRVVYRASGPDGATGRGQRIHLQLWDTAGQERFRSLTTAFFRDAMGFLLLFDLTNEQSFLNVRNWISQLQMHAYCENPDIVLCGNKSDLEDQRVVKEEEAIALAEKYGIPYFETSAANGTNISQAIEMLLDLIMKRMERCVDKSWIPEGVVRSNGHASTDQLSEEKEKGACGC

[3] = target: T2, General transcription and DNA repair factor IIH helicase subunit XPD (Homo sapiens, UniProt P18074); details: read-out: Kd apparent; k-562, colo 205, sk-n-be(2) and mv-4-11
T2 sequence (P18074 whole entry): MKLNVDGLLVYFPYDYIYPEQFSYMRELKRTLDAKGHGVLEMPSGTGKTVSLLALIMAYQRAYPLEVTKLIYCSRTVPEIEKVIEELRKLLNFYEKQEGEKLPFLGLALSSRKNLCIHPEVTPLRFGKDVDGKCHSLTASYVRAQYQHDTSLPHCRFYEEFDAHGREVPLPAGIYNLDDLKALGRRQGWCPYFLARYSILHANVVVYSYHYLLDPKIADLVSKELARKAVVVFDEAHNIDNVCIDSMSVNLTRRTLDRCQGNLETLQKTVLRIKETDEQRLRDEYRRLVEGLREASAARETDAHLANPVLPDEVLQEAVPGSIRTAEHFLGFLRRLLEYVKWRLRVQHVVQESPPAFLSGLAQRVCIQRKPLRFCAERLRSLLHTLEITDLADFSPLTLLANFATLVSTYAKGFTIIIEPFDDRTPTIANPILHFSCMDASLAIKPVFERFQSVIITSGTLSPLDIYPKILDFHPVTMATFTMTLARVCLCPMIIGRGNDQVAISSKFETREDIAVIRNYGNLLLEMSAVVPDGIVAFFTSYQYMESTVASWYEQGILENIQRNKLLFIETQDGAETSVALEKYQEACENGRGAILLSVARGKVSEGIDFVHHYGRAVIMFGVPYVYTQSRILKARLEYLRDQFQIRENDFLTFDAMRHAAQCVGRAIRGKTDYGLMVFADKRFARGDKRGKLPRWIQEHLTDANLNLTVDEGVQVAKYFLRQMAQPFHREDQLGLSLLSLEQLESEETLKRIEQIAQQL

Obg-like ATPase 1 = Obg-like ATPase 1 (Homo sapiens, UniProt Q9NTK5)
[4] = target: T3, Serine/threonine-protein kinase TAO1 (Homo sapiens, UniProt Q7L7X3)
T3 sequence (Q7L7X3 whole entry): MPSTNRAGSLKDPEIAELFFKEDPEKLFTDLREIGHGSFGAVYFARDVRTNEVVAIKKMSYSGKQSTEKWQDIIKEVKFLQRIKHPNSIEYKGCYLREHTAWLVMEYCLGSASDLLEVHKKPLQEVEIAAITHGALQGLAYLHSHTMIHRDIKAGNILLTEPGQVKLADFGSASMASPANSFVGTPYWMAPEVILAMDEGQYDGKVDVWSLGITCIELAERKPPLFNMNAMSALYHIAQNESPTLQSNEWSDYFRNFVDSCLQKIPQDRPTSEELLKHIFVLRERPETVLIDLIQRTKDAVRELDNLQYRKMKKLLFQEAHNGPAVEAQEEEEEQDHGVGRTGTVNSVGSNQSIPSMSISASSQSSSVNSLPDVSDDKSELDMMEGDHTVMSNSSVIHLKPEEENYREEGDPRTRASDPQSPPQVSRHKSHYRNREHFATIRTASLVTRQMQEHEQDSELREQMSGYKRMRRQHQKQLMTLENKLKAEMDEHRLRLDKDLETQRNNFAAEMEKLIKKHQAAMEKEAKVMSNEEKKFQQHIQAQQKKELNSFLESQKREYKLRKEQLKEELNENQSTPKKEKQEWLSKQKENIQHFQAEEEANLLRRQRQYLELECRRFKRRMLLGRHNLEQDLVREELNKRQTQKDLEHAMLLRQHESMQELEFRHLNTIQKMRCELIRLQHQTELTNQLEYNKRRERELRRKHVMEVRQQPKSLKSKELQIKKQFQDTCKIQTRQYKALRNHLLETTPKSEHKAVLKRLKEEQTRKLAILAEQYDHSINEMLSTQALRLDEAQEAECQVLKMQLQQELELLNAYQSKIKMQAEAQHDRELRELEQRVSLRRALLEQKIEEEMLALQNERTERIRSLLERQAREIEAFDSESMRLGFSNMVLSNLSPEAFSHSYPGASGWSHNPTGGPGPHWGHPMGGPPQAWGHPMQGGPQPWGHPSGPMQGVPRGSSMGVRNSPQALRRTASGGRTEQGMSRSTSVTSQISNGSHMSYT
Further: in the data inactive means no Kd found up to 30 µM.

Sequence of Obg-like ATPase 1 (Q9NTK5 whole entry, looked up): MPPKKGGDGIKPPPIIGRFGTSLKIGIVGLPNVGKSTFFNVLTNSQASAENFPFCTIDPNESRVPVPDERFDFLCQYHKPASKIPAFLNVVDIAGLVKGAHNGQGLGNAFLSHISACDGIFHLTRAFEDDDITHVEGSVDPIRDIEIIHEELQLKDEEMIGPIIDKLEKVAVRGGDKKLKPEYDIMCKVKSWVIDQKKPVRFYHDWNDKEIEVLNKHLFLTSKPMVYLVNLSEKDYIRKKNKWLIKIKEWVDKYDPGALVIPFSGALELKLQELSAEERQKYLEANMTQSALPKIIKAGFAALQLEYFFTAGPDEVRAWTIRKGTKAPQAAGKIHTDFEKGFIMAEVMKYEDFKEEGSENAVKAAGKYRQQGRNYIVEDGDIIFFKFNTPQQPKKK

Row | SMILES | Kd [1] | Kd [2] | Kd [3] | Kd (Obg-like ATPase 1) | Kd [4]
1 | CN(c1ncccc1CNc1nc(Nc2ccc3c(c2)CC(=O)N3)ncc1C(F)(F)F)S(C)(=O)=O [PF-00562271] | > 30 µM (inactive) | > 30 µM (inactive) | 2.64 µM (active) | > 30 µM (inactive) | –
2 | C[C@]1(O)C[C@@H](c2nc(-c3ccc4ccc(-c5ccccc5)nc4c3)c3c(N)nccn32)C1 [LINSITINIB] | > 30 µM (inactive) | > 30 µM (inactive) | > 30 µM (inactive) | – | –
3 | COc1cc2ncnc(Nc3ccc(O)cc3)c2cc1OC [WHI-P131] | > 30 µM (inactive) | – | > 30 µM (inactive) | > 30 µM (inactive) | > 30 µM (inactive)
4 | Cn1c(=O)n(-c2ccc(C(C)(C)C#N)cc2)c2c3cc(-c4cnc5ccccc5c4)ccc3ncc21 [DACTOLISIB] | > 30 µM (inactive) | > 30 µM (inactive) | > 30 µM (inactive) | > 30 µM (inactive) | –
5 | COc1cc2c(Oc3ccc4[nH]c(C)cc4c3F)ncnc2cc1OCCCN1CCCC1 [CEDIRANIB] | > 30 µM (inactive) | > 30 µM (inactive) | – | > 30 µM (inactive) | –
6 | CN1CCN(c2nc(C3=C(c4c[nH]c5ccccc45)C(=O)NC3=O)c3ccccc3n2)CC1 [SOTRASTAURIN] | > 30 µM (inactive) | > 30 µM (inactive) | > 30 µM (inactive) | – | –
7 | O[C@H]1CC[C@H](Nc2ncc3nc(Nc4c(F)cc(F)cc4F)n([C@H]4CCOC4)c3n2)CC1 [TANZISERTIB] | > 30 µM (inactive) | > 30 µM (inactive) | > 30 µM (inactive) | – | > 30 µM (inactive)
8 | C=CCn1c(=O)c2cnc(Nc3ccc(N4CCN(C)CC4)cc3)nc2n1-c1cccc(C(C)(C)O)n1 [ADAVOSERTIB] | > 30 µM (inactive) | > 30 µM (inactive) | > 30 µM (inactive) | > 30 µM (inactive) | –
9 | COc1cc2c(N3CCN(C(=O)Nc4ccc(OC(C)C)cc4)CC3)ncnc2cc1OCCCN1CCCCC1 [TANDUTINIB] | – | > 30 µM (inactive) | > 30 µM (inactive) | > 30 µM (inactive) | –
10 | CN(C)C/C=C/C(=O)Nc1cc2c(Nc3ccc(F)c(Cl)c3)ncnc2cc1O[C@H]1CCOC1 [AFATINIB] | > 30 µM (inactive) | > 30 µM (inactive) | > 30 µM (inactive) | > 30 µM (inactive) | –
11 | CCc1nc(C(N)=O)c(Nc2ccc(N3CCC(N4CCN(C)CC4)CC3)c(OC)c2)nc1NC1CCOCC1 [GILTERITINIB] | 0.759 µM | > 30 µM (inactive) | > 30 µM (inactive) | – | > 30 µM (inactive)
12 | CCN1CCN(Cc2ccc(Nc3ncc(F)c(-c4cc(F)c5nc(C)n(C(C)C)c5c4)n3)nc2)CC1 [ABEMACICLIB] | > 30 µM (inactive) | > 30 µM (inactive) | > 30 µM (inactive) | – | –
13 | FC(F)(F)c1ccc(CNc2ccc(Cc3c[nH]c4ncc(Cl)cc34)cn2)cn1 [PEXIDARTINIB] | > 30 µM (inactive) | > 30 µM (inactive) | – | – | > 30 µM (inactive)
14 | O=c1[nH]c([C@@H]2CCCN2)nc2c1oc1ccc(Cl)cc12 | > 30 µM (inactive) | > 30 µM (inactive) | > 30 µM (inactive) | – | > 30 µM (inactive)
15 | N#CCNC(=O)c1ccc(-c2ccnc(Nc3ccc(N4CCOCC4)cc3)n2)cc1 [MOMELOTINIB] | > 30 µM (inactive) | > 30 µM (inactive) | – | > 30 µM (inactive) | > 30 µM (inactive)
16 | C=CC(=O)Nc1cccc(Nc2nc(Nc3ccc(N4CCN(C(C)=O)CC4)cc3OC)ncc2C(F)(F)F)c1 [ROCILETINIB] | > 30 µM (inactive) | – | > 30 µM (inactive) | > 30 µM (inactive) | > 30 µM (inactive)
17 | Cn1cnc2c(F)c(Nc3ccc(Br)cc3Cl)c(C(=O)NOCCO)cc21 [SELUMETINIB] | > 30 µM (inactive) | > 30 µM (inactive) | > 30 µM (inactive) | > 30 µM (inactive) | –
18 | CC[C@@](C)(Nc1ccnc(-c2c[nH]c3ncccc23)n1)C(=O)NCC(F)(F)F [DECERNOTINIB] | > 30 µM (inactive) | > 30 µM (inactive) | > 30 µM (inactive) | – | 3.41 µM (active)
19 | CC1(C)CNc2cc(NC(=O)c3cccnc3NCc3ccncc3)ccc21 [MOTESANIB] | > 30 µM (inactive) | > 30 µM (inactive) | > 30 µM (inactive) | > 30 µM (inactive) | –
20 | O=S(=O)(c1cccc2cnccc12)N1CCCNCC1 [FASUDIL] | – | > 30 µM (inactive) | > 30 µM (inactive) | > 30 µM (inactive) | –
21 | C=CCN(/C=C1/C(=O)O[C@H](COC)[C@@]2(C)C1=C(O)C(=O)C1=C2[C@H](OC(C)=O)C[C@]2(C)C(=O)CC[C@@H]12)CC=C [SONOLISIB] | > 30 µM (inactive) | – | > 30 µM (inactive) | – | > 30 µM (inactive)
22 | C=CC(=O)Nc1cc(Nc2nccc(-c3cn(C)c4ccccc34)n2)c(OC)cc1N(C)CCN(C)C [OSIMERTINIB] | > 30 µM (inactive) | > 30 µM (inactive) | – | > 30 µM (inactive) | > 30 µM (inactive)
23 | Cc1c(Cn2c(C)nc3c(C(=O)O)cc(N4CCOCC4)cc32)cccc1C(F)(F)F [GSK-2636771] | > 30 µM (inactive) | – | > 30 µM (inactive) | > 30 µM (inactive) | > 30 µM (inactive)
24 | CCN(CCCOc1ccc2c(Nc3cc(CC(=O)Nc4cccc(F)c4)n[nH]3)ncnc2c1)CCOP(=O)(O)O [BARASERTIB] | > 30 µM (inactive) | – | > 30 µM (inactive) | > 30 µM (inactive) | –
25 | O=C(O)c1ccc2c(c1)nc(Nc1cccc(Cl)c1)c1ccncc12 [SILMITASERTIB] | > 30 µM (inactive) | – | > 30 µM (inactive) | – | 2.08 µM (active)

Next, values leading:

Row | Kd [1] | Kd [2] | Kd [3] | Kd (Obg-like ATPase 1) | Kd [4] | SMILES
26 | > 30 µM (inactive) | > 30 µM (inactive) | – | – | > 30 µM (inactive) | COc1cccc(Nc2ncnn3ccc(CN4CC[C@@H](N)[C@H](O)C4)c23)c1 [BMS-690514]
27 | > 30 µM (inactive) | – | > 30 µM (inactive) | > 30 µM (inactive) | > 30 µM (inactive) | Cc1cc(C(=O)Nc2cc(Oc3ccc4nc(NC(=O)C5CC5)cn4n3)ccc2C)n(C)n1 [TAK-593]
28 | > 30 µM (inactive) | – | > 30 µM (inactive) | > 30 µM (inactive) | > 30 µM (inactive) | Cn1c(=O)c(F)c(Nc2ccc(I)cc2F)c2c(=O)n(C[C@@H](O)CO)cnc21 [TAK-733]
29 | > 30 µM (inactive) | > 30 µM (inactive) | > 30 µM (inactive) | > 30 µM (inactive) | – | C[C@@]1(C(=O)Nc2ccc(F)nc2)CCCN1c1nc(Nc2cc(C3CC3)n[nH]2)c2cccn2n1 [BMS-754807]
30 | > 30 µM (inactive) | > 30 µM (inactive) | – | > 30 µM (inactive) | > 30 µM (inactive) | CCOc1ccn(-c2ccc(F)cc2)c(=O)c1C(=O)Nc1ccc(Oc2ccnc(N)c2Cl)c(F)c1 [BMS-777607]
31 | > 30 µM (inactive) | – | – | – | > 30 µM (inactive) | CC(C)(O)CC(=O)NCCn1ccc2ncnc(Nc3ccc(Oc4cccc(C(F)(F)F)c4)c(Cl)c3)c21 [TAK-285]
32 | > 30 µM (inactive) | > 30 µM (inactive) | > 30 µM (inactive) | – | > 30 µM (inactive) | O=C(Nc1ccc(OC(F)(F)F)cc1)c1sccc1NCc1ccnc2ccccc12 [OSI-930]
